# Results from BindingDB's records for doi:10.1016/s0969-8051(99)00080-3 (Emory University, 2000).
# Assays:
# [1] = molecular target: Sodium-dependent noradrenaline transporter (Homo sapiens, UniProt P23975)
# [2] = molecular target: Sodium-dependent dopamine transporter (Homo sapiens, UniProt Q01959)
# Chain of Sodium-dependent dopamine transporter (Q01959 whole entry): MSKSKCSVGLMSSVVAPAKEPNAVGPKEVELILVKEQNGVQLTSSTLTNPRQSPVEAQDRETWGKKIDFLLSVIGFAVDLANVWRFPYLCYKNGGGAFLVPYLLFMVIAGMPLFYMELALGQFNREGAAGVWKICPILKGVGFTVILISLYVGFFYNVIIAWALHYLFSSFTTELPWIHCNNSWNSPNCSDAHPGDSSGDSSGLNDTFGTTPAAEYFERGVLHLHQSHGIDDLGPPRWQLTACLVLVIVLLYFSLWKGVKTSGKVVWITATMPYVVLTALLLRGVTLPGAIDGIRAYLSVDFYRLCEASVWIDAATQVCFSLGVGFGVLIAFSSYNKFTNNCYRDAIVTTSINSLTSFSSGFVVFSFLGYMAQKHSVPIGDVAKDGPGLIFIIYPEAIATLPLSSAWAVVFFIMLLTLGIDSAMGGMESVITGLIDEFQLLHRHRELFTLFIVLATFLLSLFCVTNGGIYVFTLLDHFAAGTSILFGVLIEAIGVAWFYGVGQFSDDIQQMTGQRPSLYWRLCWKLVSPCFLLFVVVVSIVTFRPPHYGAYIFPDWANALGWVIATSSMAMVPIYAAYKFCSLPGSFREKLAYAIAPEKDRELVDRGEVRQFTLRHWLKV
# Chain of Sodium-dependent noradrenaline transporter (P23975 whole entry): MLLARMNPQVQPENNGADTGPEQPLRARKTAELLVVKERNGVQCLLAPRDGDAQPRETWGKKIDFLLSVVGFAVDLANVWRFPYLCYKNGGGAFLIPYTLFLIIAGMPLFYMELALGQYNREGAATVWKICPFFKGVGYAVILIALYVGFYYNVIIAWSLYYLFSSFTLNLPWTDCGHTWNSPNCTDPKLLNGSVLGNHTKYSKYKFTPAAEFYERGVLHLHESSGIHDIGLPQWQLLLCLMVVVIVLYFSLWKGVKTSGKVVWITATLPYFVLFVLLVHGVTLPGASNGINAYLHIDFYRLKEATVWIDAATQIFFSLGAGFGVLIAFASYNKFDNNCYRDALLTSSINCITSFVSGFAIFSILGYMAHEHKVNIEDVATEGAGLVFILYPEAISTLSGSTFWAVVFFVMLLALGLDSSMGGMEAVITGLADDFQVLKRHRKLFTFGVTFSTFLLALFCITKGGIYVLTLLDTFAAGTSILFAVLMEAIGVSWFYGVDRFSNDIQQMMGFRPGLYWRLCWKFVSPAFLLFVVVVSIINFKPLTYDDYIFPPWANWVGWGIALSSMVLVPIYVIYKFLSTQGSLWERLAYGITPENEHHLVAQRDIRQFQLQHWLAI
smiles,measurement,setting,value
COC(=O)C1C(c2ccc(Cl)cc2)CC2CCC1N2CCF (configuration not stated) [MOLI000038],Ki,[1],240 nM
same,Ki,[2],1.53 nM
